Source: article PMC12669672, “Structural insights into selective and dual antagonism of EP2 and EP4 prostaglandin receptors” (The EMBO Journal, 2025)
pIC50: −log10 of the molar value. Where “and” joins values, the source holds several entries; their conditions need not be identical. Equal entries are not always repeated. Where two headings read alike, the source gives them in different places.

Key:
Assay in all cases: GloSensor cAMP assay, antagonism of PGE2-induced cAMP
Format in all cases: cell-based
EP2 S308A = biological target: T1, EP2 S308A (Homo sapiens, UniProt P43116, S308A); conditions: for cAMP activity (∆pIC50 from EP2 WT): TG6-129, S308A
T1 construct: The full-length EP2 or EP4 was cloned into the pcDNA3.1 vector; FLAG (N); expressed in transfected cells; host or cells: AD293 cells
Experimental: (§1) The full-length EP2 or EP4 was cloned into the pcDNA3.1 vector (Invitrogen), incorporating an N-terminal FLAG tag. AD293 cells were seeded in six-well plates containing DMEM supplemented with 10% dialyzed FBS 1 day prior to transfection. Following overnight growth, cells were transfected with a 1:1 ratio of receptor construct and GloSensor22F cAMP biosensor (Promega) plasmids.
(§2) Twenty-four hours post-transfection, the cells were transferred to CO2-independent media containing 2% GloSensor cAMP Reagent (Promega) and distributed into 384-well assay plates at a density of 4000 cells per well in 10 μL. […] The plates were then incubated at 37 °C for an additional hour before luminescence measurements were taken using an EnVision plate reader.
(§3) Data analysis was performed using GraphPad Prism software v8.0.1. A nonlinear regression analysis, employing a sigmoidal dose–response model, was conducted to determine the Emax values and half-maximum inhibitory concentrations (IC50) for each compound tested.

EP2 T82A = biological target: T2, EP2 T82A (Homo sapiens, UniProt P43116, T82A); conditions: for cAMP activity (∆pIC50 from EP2 WT): TG6-129, T82A
T2 construct: The full-length EP2 or EP4 was cloned into the pcDNA3.1 vector; FLAG (N); expressed in transfected cells; host or cells: AD293 cells
Experimental: as §1, §2, §3

EP4 S319A = biological target: T3, EP4 S319A (Homo sapiens, UniProt P35408, S319A); conditions: for cAMP activity (∆pIC50 from EP4 WT): TG6-129, S319A
T3 construct: The full-length EP2 or EP4 was cloned into the pcDNA3.1 vector (Invitrogen), incorporating an N-terminal FLAG tag; expressed in transfected cells; host or cells: AD293
Experimental: as §1, §2, §3

EP4 V72A = biological target: T4, EP4 V72A (Homo sapiens, UniProt P35408, V72A)
T4 construct: The full-length EP2 or EP4 was cloned into the pcDNA3.1 vector; FLAG (N); expressed in transfected cells; host or cells: AD293 cells
Experimental: as §1, §2, §3

EP2 S86A = biological target: T5, EP2 S86A (Homo sapiens, UniProt P43116, S86A); conditions: for cAMP activity (∆pIC50 from EP2 WT): TG6-129, S86A
T5 construct: The full-length EP2 or EP4 was cloned into the pcDNA3.1 vector; FLAG (N); expressed in transfected cells; host or cells: AD293 cells
Experimental: as §1, §2, §3

EP2 M116A = biological target: T6, EP2 M116A (Homo sapiens, UniProt P43116, M116A); conditions: for cAMP activity (∆pIC50 from EP2 WT): TG6-129, M116A
T6 construct: The full-length EP2 or EP4 was cloned into the pcDNA3.1 vector; FLAG (N); expressed in transfected cells; host or cells: AD293 cells
Experimental: as §1, §2, §3

EP2 W186A = biological target: T7, EP2 W186A (Homo sapiens, UniProt P43116, W186A)
T7 construct: The full-length EP2 or EP4 was cloned into the pcDNA3.1 vector; FLAG (N); expressed in transfected cells; host or cells: AD293 cells
Experimental: as §1, §2, §3

EP2 S305A = biological target: T8, EP2 S305A (Homo sapiens, UniProt P43116, S305A)
T8 construct: The full-length EP2 or EP4 was cloned into the pcDNA3.1 vector; FLAG (N); expressed in transfected cells; host or cells: AD293 cells
Experimental: as §1, §2, §3

[1] = 1 h, TG6-129 log([M]) -7, read-out: % cAMP activity (normalized to WT)
[2] = 1 h, TG6-129 log([M]) -10, read-out: % cAMP activity (normalized to WT)
[3] = 1 h, TG6-129 log([M]) -11, read-out: % cAMP activity (normalized to WT)
[4] = 1 h, TG6-129 log([M]) -8, read-out: % cAMP activity (normalized to WT)
[5] = 1 h, TG6-129 log([M]) -9, read-out: % cAMP activity (normalized to WT)
[6] = 1 h, TG6-129 log([M]) -12, read-out: % cAMP activity (normalized to WT)
[7] = 1 h, TG6-129 log([M]) -4.00, read-out: % cAMP activity (normalized to WT)
[8] = 1 h, TG6-129 log([M]) -4.70, read-out: % cAMP activity (normalized to WT)
[9] = 1 h, TG6-129 log([M]) -5.40, read-out: % cAMP activity (normalized to WT)
[10] = 1 h, TG6-129 log([M]) -6.10, read-out: % cAMP activity (normalized to WT)
[11] = 1 h, TG6-129 log([M]) -6.80, read-out: % cAMP activity (normalized to WT)
[12] = 1 h, TG6-129 log([M]) -7.49, read-out: % cAMP activity (normalized to WT)
[13] = 1 h, TG6-129 log([M]) -8.19, read-out: % cAMP activity (normalized to WT)
[14] = 1 h, TG6-129 log([M]) -8.89, read-out: % cAMP activity (normalized to WT)
[15] = 1 h, TG6-129 log([M]) -6, read-out: % cAMP activity (normalized to WT)

T6 sequence (P43116 whole entry M116A): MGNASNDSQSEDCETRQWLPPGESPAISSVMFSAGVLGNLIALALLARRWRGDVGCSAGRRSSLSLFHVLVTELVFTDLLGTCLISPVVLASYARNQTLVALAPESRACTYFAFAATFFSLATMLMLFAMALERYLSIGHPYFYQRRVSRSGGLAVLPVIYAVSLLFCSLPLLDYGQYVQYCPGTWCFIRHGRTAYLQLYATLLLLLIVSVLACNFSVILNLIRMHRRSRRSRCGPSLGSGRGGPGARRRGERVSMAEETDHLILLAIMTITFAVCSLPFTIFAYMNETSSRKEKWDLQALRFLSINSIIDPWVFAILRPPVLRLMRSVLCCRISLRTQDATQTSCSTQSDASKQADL
T2 sequence (P43116 whole entry T82A): as the sequence (P43116 whole entry M116A) above, with T82A, A116M counted along it
T8 sequence (P43116 whole entry S305A): as the sequence (P43116 whole entry M116A) above, with A116M, S305A counted along it
T5 sequence (P43116 whole entry S86A): as the sequence (P43116 whole entry M116A) above, with S86A, A116M counted along it
T1 sequence (P43116 whole entry S308A): as the sequence (P43116 whole entry M116A) above, with A116M, S308A counted along it
T3 sequence (P35408 whole entry S319A): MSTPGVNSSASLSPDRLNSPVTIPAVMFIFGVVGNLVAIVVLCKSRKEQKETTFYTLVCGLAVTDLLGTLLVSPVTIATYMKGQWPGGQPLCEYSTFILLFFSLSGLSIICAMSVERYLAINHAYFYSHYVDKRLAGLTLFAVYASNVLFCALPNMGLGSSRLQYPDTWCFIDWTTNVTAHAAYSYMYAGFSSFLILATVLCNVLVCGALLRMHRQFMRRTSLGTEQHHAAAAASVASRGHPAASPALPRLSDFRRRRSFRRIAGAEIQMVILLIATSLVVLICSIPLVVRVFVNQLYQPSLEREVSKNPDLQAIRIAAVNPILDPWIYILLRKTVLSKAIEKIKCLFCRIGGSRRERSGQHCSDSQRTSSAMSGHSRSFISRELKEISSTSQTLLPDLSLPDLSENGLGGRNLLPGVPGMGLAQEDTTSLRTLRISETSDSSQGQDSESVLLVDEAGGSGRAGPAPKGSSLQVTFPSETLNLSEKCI
T4 sequence (P35408 whole entry V72A): as the sequence (P35408 whole entry S319A) above, with V72A, A319S counted along it
T7 sequence (P43116 whole entry W186A): as the sequence (P43116 whole entry M116A) above, with A116M, W186A counted along it

With `CCc1nnc(NS(=O)(=O)c2ccc(NC(=S)NC(=O)/C=C/c3ccc(F)cc3)cc2)s1` [TG6-129] the pIC50 (EP2 S308A) was 6.68, the remaining activity at 0.1 µM (EP2 S308A; [1]) was 80.3% and the remaining activity at 0.0001 µM (EP2 S308A; [2]) was 108%. For the same compound, the remaining activity at 10 pM (EP2 S308A; [3]) was 110%, the “cAMP activity (∆pIC50 from EP2 WT)” value (EP2 S308A; Mean) was -0.534 and the “cAMP activity (∆pIC50 from EP2 WT)” value (EP2 S308A; single experiments 1st-3rd) was -0.496 and -0.568 and -0.537. It also gave a pIC50 (EP2 T82A) of 7.13, a remaining activity at 0.01 µM (EP2 T82A; [4]) of 28.8% and a remaining activity at 0.001 µM (EP2 T82A; [5]) of 38.9%. The remaining activity at 10 pM (EP2 T82A; [3]) was 40.1%, the remaining activity at 1 pM (EP2 T82A; [6]) was 33.8% and the “cAMP activity (∆pIC50 from EP2 WT)” value (EP2 T82A; Mean) was -0.177. The “cAMP activity (∆pIC50 from EP2 WT)” value (EP2 T82A; single experiments 1st-3rd) was -0.228 and -0.186 and -0.118, the pIC50 (EP4 S319A) was 4.70 and the remaining activity at 100 µM (EP4 S319A; [7]) was 15.3%. For the same compound, the remaining activity at […] (EP4 S319A; [8]) was 26.4%, the remaining activity at […] (EP4 S319A; [9]) was 52.2% and the remaining activity at […] (EP4 S319A; [10]) was 50.8%. The remaining activity at 0.1585 µM (EP4 S319A; [11]) was 53.5%, the remaining activity at 0.03236 µM (EP4 S319A; [12]) was 57.1% and the remaining activity at 0.006457 µM (EP4 S319A; [13]) was 56.3%. The remaining activity at 0.001288 µM (EP4 S319A; [14]) was 49.4%, the “cAMP activity (∆pIC50 from EP4 WT)” value (EP4 S319A; Mean) was -0.299 and the “cAMP activity (∆pIC50 from EP4 WT)” value (EP4 S319A; single experiments 1st-3rd) was -0.429 and -0.317 and -0.151. It also gave a pIC50 (EP4 V72A) of 4.74, a remaining activity at 100 µM (EP4 V72A; [7]) of 12.5% and a remaining activity at […] (EP4 V72A; [8]) of 22.1%. The remaining activity at […] (EP4 V72A; [9]) was 49.5%, the remaining activity at […] (EP4 V72A; [10]) was 51.9% and the remaining activity at 0.1585 µM (EP4 V72A; [11]) was 46%. For the same compound, the remaining activity at 0.03236 µM (EP4 V72A; [12]) was 55.5%, the remaining activity at 0.006457 µM (EP4 V72A; [13]) was 65.3% and the remaining activity at 0.001288 µM (EP4 V72A; [14]) was 49%. The “cAMP activity (∆pIC50 from EP4 WT)” value (EP4 V72A; TG6-129, V72A, Mean) was -0.291, the pIC50 (EP2 S86A) was 6.47 and the remaining activity at 0.01 µM (EP2 S86A; [4]) was 39.3%. The remaining activity at 0.0001 µM (EP2 S86A; [2]) was 51.4%, the remaining activity at 1 pM (EP2 S86A; [6]) was 49.3% and the “cAMP activity (∆pIC50 from EP2 WT)” value (EP2 S86A; Mean) was -0.714. For the same compound, the “cAMP activity (∆pIC50 from EP2 WT)” value (EP2 S86A; single experiments 1st-3rd) was -0.638 and -0.681 and -0.823, the pIC50 (EP2 M116A) was 6.29 and the “cAMP activity (∆pIC50 from EP2 WT)” value (EP2 M116A; Mean) was -0.947. The “cAMP activity (∆pIC50 from EP2 WT)” value (EP2 M116A; single experiments 1st-3rd) was -0.910 and -0.955 and -0.975, the pIC50 (EP2 W186A) was 5.70 and the remaining activity at 1 µM (EP2 W186A; [15]) was 12.3%. For the same compound, the remaining activity at 0.1 µM (EP2 W186A; [1]) was 14.9%, the remaining activity at 0.01 µM (EP2 W186A; [4]) was 13.9% and the remaining activity at 0.001 µM (EP2 W186A; [5]) was 12.1%. It also gave a remaining activity at 0.0001 µM (EP2 W186A; [2]) of 12.9%, a remaining activity at 10 pM (EP2 W186A; [3]) of 15.2% and a remaining activity at 1 pM (EP2 W186A; [6]) of 12.4%. The “cAMP activity (∆pIC50 from EP2 WT)” value (EP2 W186A; TG6-129, W186A, Mean) was -1.790, the pIC50 (EP2 S305A) was 7.54 and the remaining activity at 1 µM (EP2 S305A; [15]) was 9.02%. It also gave a remaining activity at 0.1 µM (EP2 S305A; [1]) of 12.5%.
